Series [1] deals with TNFα release. Briefly: LPS-induced TNFα release in diluted human blood (ELISA). The class given is cell-based. Particulars: LPS 1 μg/ml, human blood diluted 1:5, 24 h; read-out: IC50 value in the TNFα inhibitory assay. The source says: Isolated leukocytes can be stimulated for the release of cytokines in different ways. Lipopolysaccharides (LPS) are a stimulus for the investigation of the TNFα release. LPS is part of bacterial cell walls and is released when the bacteria are killed (by antibiotics or the natural immune system). LPS stimulates in particular the activity of phagocytizing leukocytes (tissue macrophages, granulocytes, monocytes) and causes the infiltration of leukocytes from the peripheral blood into the affected tissue. A cytokine of special significance for these mechanisms is TNFα which is secreted in large amounts by the affected cells. The main source are here monocytes and macrophages. TNFα initiates and prolongs the inflammatory process in cooperation with other mediators.
For the investigation of the effect on the LPS-induced TNFα release a method was used which was described by Marx, D., Tassabehji, M., Heer, S., Hüttenbrink, K.-B., and I. Szelenyi, Pulmonary Pharmacology & Therapeutics (2002) 15, 7-15. The method is briefly: Human blood was taken from various donors, rendered incoagulable by the addition of 10 mM Na citrate and diluted 1:5 with RPMI 1640 cell culture medium. The test substances were added to the blood samples at various concentrations. 15 min later, the leukocytes were stimulated by the addition of lipopolysaccharides (LPS) from Salmonella abortus equi at a final concentration of 1 μg/ml. After the incubation of the test batches at 37° C. and under 5% CO2 in a water-saturated air for 24 h, the blood was centrifuged and the TNFα concentration in the cell-free supernatant was accurately measured using a purchasable ELISA (BD Biosciences) according to the manufacturer's instructions.

Series [2] concerns murine neuroblastoma cell line N2a. Briefly: Induction of axon growth in N2a cells. Format: cell-based. The following applies: 1 μM in the test batch, after 72 h, listed as 7-(3,4-dimethoxyphenyl)-4-ethoxy-9-methyl-2-piperazin-1-yl-pyrido[3′,2′:4,5]-thi. The source says:
The inventors have tested some PDE4 inhibitors according to the invention for induction of axon growth with the murine neuroblastoma cell line N2a. It turned out that in particular the substances 4-ethoxy-9-ethyl-7-(3,4-methylenedioxyphenyl)-2-piperazin-1-yl-pyrido[3′,2′:4,5]thieno[3,2-d]-pyrimidine and 7-(3,4-dimethoxyphenyl)-4-ethoxy-9-methyl-2-piperazin-1-yl-pyrido[3′,2′:4,5]thieno[3,2-d]pyrimidine hydrochloride were able to induce the growth of long processes (“axons”) having a length of up to […] at concentrations of 1 μM in the test batch after 72 h (FIGS. 1a and 1b).

The target of series [3] is T1, PDE-4A (Homo sapiens, UniProt P27815).
T1 construct: PDE-4A catalytic domain comprising amino acids 342-704; made in house; host or cells: Escherichia coli
Put plainly: PDE-4A inhibitory assay (SPA). The class given is biochemical. The essentials:
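Human recombinant PDE-4A catalytic domain (aa 342-704), E. coli-expressed. SPA with 1 μM [^3H]-cAMP substrate in 100 mM Tris-HCl pH 7.5, 5 mM MgCl2, 1% DMSO; 20 min at 22° C. Non-specific activity with 100 μM rolipram subtracted.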

Series [4] has as its system CLL cells. Put plainly: Cytotoxicity on CLL cells, formazan reduction assay (MTT test). The following applies: 1 μM, 24 h incubation of the patient's blood, primary CLL. As for the experimental part: The positive control used was fludarabine which is employed for CLL as a standard chemotherapeutic agent.
The cytotoxicity of the CLL cells was determined by means of a commercially available formazan reduction assay (MTT test) after 24 h of incubation of the patient's blood with the active substances.
Background: Tetrazolium dyes change colour on reduction, which living cells bring about.

For series [5], the system named is PDE-4. The following applies: cited from earlier work.

Where only a bound is given, the exact number is not on record here.

T1 sequence (P27815 342-704): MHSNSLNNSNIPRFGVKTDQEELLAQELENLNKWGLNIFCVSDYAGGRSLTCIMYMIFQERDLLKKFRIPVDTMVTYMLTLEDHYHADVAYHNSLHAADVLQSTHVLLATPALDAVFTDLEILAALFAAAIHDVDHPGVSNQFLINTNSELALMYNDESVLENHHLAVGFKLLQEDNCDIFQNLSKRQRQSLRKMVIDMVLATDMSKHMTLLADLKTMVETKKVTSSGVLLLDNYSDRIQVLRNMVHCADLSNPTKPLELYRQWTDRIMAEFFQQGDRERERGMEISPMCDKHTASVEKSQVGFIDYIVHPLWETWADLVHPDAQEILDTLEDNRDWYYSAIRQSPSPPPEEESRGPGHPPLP

Usually IC50 stands for the concentration needed to halve the response being measured. Turning to `CCOc1nc(N2CCNCC2)nc2c1sc1nc(-c3ccc(OC)c(OC)c3)cc(C)c12.Cl` [4-Ethoxy-7-(3,4-dimethoxy-phenyl)-9-methyl-2-(piperazin-1-yl)-pyrido[3′,2′:4,5]thieno[3,2-d]pyrimidine-hydrochloride], the 50% inhibitory concentration (IC50) in series [1] is under 2000 nM. For the same compound, the length of induced long processes (axons) in series [2] is at most 300 µm.

For orientation: melting point means the temperature of the solid-liquid transition. In turn, `CCOc1nc(N2CCNCC2)nc2c1sc1nc(-c3ccc(C(O)CO)cc3)nc(C)c12` (stereo not shown) [7-(4-[1,2-Dihydroxyethyl]-phenyl)-4-ethoxy-9-methyl-2-piperazin-1-yl-thieno[2,3-d:4,5-d′]dipyrimidine] registered a melting point of over 300 °C. The IC50 in series [3] was 2 to 50 nM. Further, the IC50 in series [1] is under 2000 nM.

As for `Nc1nc(F)nc2c1ncn2[C@@H]1O[C@H](CO)[C@@H](O)[C@@H]1O` [fludarabine], the “cytotoxicity, share of the cells” value in series [4] is at most 60%.

Take `O=C(Nc1c(Cl)cncc1Cl)c1ccc(OC(F)F)c(OCC2CC2)c1` [roflumilast]: in series [5], the IC50 was 0.8 nM.
